From patent US20230285498A1, “TREATMENTS FOR CANCERS HAVING KRAS MUTATIONS” (City of Hope, priority 2020, published 2023)
pIC50: −log10 of the molar value. Where two headings read alike, the source gives them in different places.

What was measured:
H358 = experiment: Cell proliferation assay, 2D (IncuCyte live cell imaging); type: cell-based; details: H358
Method: (§1) The cells grown in 2D cultures were treated with various concentrations of the drug, and the effect on cell proliferation was determined in real time using the live cell proliferation assay (IncuCyte, Essen Bioscience, Inc.) as described in the methods.
(§2) Cell proliferation and apoptosis assay: Cell proliferation assays were performed using cell lines stably transfected with NucLight Red Lentivirus (Essen BioScience) to accurately visualize and count the nucleus of a single cell. Cells were seeded on a 96-well plate and allowed to adhere for 24 h. Test compounds were added at indicated concentrations. Caspase-3/7 Green Apoptosis Reagent (Essen BioScience) was also added as a green fluorescent indicator of caspase3/7-mediated apoptotic activity. To monitor cell proliferation and apoptosis over time, the plate was placed in the IncuCyte S3 Live Cell Imaging System (Essen BioScience) and images were acquired every 2 hours. Data analysis was generated by the IncuCyte software using a red fluorescence mask to accurately count each cell nucleus and a green fluorescence mask to measure apoptosis over time. 3D spheroid assay 3D spheroid experiments were performed using cell lines stably transfected with NucLight Red Lentivirus (Essen BioScience) to visualize red fluorescence as an indicator of cell viability. Cells were seeded on a 96-well ultra-low attachment plate and allowed to form spheroids overnight. Drug treatment was added as indicated along with Cytotox Green Reagent (Essen BioScience), used as a green fluorescence indicator of cell death due to loss of cell membrane integrity. To monitor cell proliferation and apoptosis over time, the plate was placed in the IncuCyte S3 Live Cell Imaging System (Essen BioScience) and images were acquired every 2 hours. Data analysis was generated by the IncuCyte software using a red fluorescence mask to accurately measure intensity and area of red fluorescence, indicating spheroid viability and a green fluorescence mask, indicating cell death. Cell cycle analysis.

H23 = experiment: as above; type: cell-based; details: H23
Method: as §1, §2

SW1573 spheroids = experiment: 3D spheroid assay; type: cell-based; details: SW1573
Method: (§3) The activation of apoptosis is marked with the increase in green fluorescence intensity.
(§4) To determine the sensitivities of the same cells in 3D, mKate expressing cells were used to generate spheroids. Spheroids were monitored in real time using the IncuCyte live cell imaging system (FIG. 1B).
as §2

H358 spheroids = experiment: 3D spheroid assay; type: cell-based; details: H358
Method: as §3, §4, §2

H23 spheroids = experiment: 3D spheroid assay; type: cell-based; details: H23
Method: as §3, §4, §2

SW1573 [1] = experiment: Cell proliferation assay, 2D (IncuCyte live cell imaging); type: cell-based; details: SW1573
Method: The cells were seeded at density of 10000 cells/well 12 hours prior to the experiment. Once the cells attached to the plate the media was removed and the drugs were added to the cells. […] Cell proliferation was observed using the IncuCyte Live Imaging System for 72 hrs.
Knockdown of ITGB4 (Cat #SR302473C) at the mRNA level in the SW1573 cells was done using siRNAs purchased from OriGene Technologies (Rockville, Md., USA). JetPRIME transfection reagent (Polyplus Transfection, Illkirch, France) was used to transfect the siRNAs according to the manufacturer's protocol. Cells were seeded in 6-well plates (200,000 cells/well) and allowed to adhere overnight. Next day, 10 nM siRNA was transfected with 4 μl jetPRIME reagent in complete growth medium for each well. Next day cells were trypsinized, counted and re-plated on the 96 well plate for cell proliferation and drug assay. […] Cell growth medium was changed the next day and expression was detected 72 h post-transfection by immunoblotting.
as §1, §2

[2] = test system: cisplatin-refractory KRAS mutant NSCLC cells; experiment: Sensitization of cisplatin-refractory cells; type: cell-based; details: read-out: IC50 to sensitize cisplatin-refractory KRAS mutant NSCLC cells
Method: Furthermore, treating NSCLC cell lines that express high levels of ITGB4 and PXN (H358 and H2009) were treated with carfilzomib, H358 cells carrying the KRAS G12C mutation were more sensitive than H2009 cells harboring the G12A mutation. […] Taken together, these observations indicate that treating patients with carfilzomib in addition to targeting mutant KRAS will be more efficacious than carfilzomib treatment alone.

H23 cells = experiment: Zebrafish larvae H23 xenotransplant; type: in vivo; details: sotorasib 12 μM, adagrasib 2 μM, carfilzomib 1.6 mM as printed; Day 3
SW1573 [3] = experiment: Drug combination synergy assay (inhibition matrix); type: cell-based; details: Homo sapiens
Method: The synergy finder codes were used to determine the synergy between drugs for 48 possible combinations. The codes were run using the R-platform and synergy was calculated and represented as the synergy landscape.
Drug Combination Synergy Assay: For combination index (CI) calculation, SW1573 and H23 incured cell lines were seeded in 96-well plate with 5000 cells per well. Three biological replicates (three 96-well plates for each drug combination) were used. […] The drugs were used in linear dilution series with dilution factor of 2. […] Further, R package called SynergyFinder (He et al., 2018) was used to find the nature of drug-drug interaction (i.e. if they work in synergy or antagonistically or non-interactively). For this purpose, the drug response matrix is supplied to the mentioned package, which then uses several models namely Highest Single Agent (Berenbaum, 1989), Loewe additivity (Loewe, 1953), Bliss independence (Bliss, 1939) and Zero Interaction Potency (Yadav et al., 2015) to quantify the degree of drug synergy. The dose response matrix was used to calculate individual CI values for IC30, IC50 and IC70 drug treatments. The output values were used to plot isobolograms using the following formula. CI=IC50 (A) pair IC50 (A)+IC50 (B) pair IC50 (B)

SW1573 NSCLC cells = experiment: Mouse SW1573 xenograft; type: in vivo, Athymic nude nu/nu mice
Method: Mouse xenograft studies. Athymic nude nu/nu mice were obtained from Charles River, Wilmington, Mass., and were acclimated for a week before beginning the experiment. All animal experiments were carried out in accordance with a protocol approved by the Institutional Animal Care and Use Committee (IACUC #16004). […] All 40 animals were injected with 1×10^6 SW1573 cells suspensions in 100 μl of PBS, subcutaneously into one flank of each mouse. At the same time, animals were randomized into treatment groups. Treatment was started 12 days after the SW1573 NSCLC cells implantation to see palpable tumor growth. Treatments were given to mice via oral gavage twice a week for 8 weeks. Animals were examined daily for signs of tumor growth. Tumors were measured in two dimensions using calipers and body weights were recorded. Photographs of animals were taken at day 1, day 7, day 14, day 21, day 28, day 35, day 42, day 49, and day 56 after treatment. Photographs of tumors were also taken at day 56 after treatment. At the end of the study, the mice were euthanized by CO2 asphyxiation followed by cervical dislocation. The tumor weights were compared between groups using an unpaired Student's t-test. A portion of the tumor was fixed in 10% buffered formaldehyde solution and paraffin-embedded for immuno-staining or was snap-frozen in liquid nitrogen for further molecular analysis such as western blotting.

SW1573 cells = experiment: Zebrafish larvae SW1573 xenotransplant; type: in vivo
Method: The inventors microinjected SW1573 cells into the perivitelline space of 48 hour post-fertilization (hpf) zebrafish larvae.

`C=CC(=O)N1CCN(c2ncnc3c(F)c(-c4c(O)cccc4F)c(Cl)cc23)CC1` [ARS1620, (S)-1-(4-(6-chloro-8-fluoro-7-(2-fluoro-6-hydroxyphenyl)quinazolin-4-yl)piperazin-1-yl)prop-2-en-1-one] was tested, and the “inhibition of cell growth” value (H358; 2.5, 5 or 10 μM) was 50%, the inhibition at 1.2 µM (H358; Homo sapiens, NCI-H358, 1.2 μM, 72 hours, read-out: inhibition of cell growth) was 40% and the “inhibition of cell growth” value (H23; at 1.2 (unit not given)) was 30%. The inhibition at 5 µM (H23; Homo sapiens, NCI-H23, 5 μM, read-out: inhibition of cell growth) was 50%, the inhibition at 10 µM (H23; Homo sapiens, NCI-H23, 10 μM, 72 hours, read-out: inhibition of proliferation / cell growth) was 80% and the pIC50 (H23; Homo sapiens, NCI-H23, 72 hours, Example 6) was 5.12. For the same compound, the inhibition at 10 µM (SW1573 spheroids; Homo sapiens, 10 μM, read-out: inhibition of spheroid area / reduction in spheroid growth) was roughly 25%, the “reduction of spheroid mean red intensity” value (SW1573 spheroids; 5 μM) was 40% and the “reduction of spheroid mean red intensity” value (H358 spheroids; 5 μM) was 80%. For the same compound, the “reduction in spheroid growth” value (H358 spheroids; 10 μM) was 70%, the “reduction of spheroid mean red intensity” value (H23 spheroids; 5 μM) was 50% and the “reduction in spheroid growth” value (H23 spheroids; 10 μM) was 70%. For the same compound, the inhibition at 10 µM (SW1573 [1]; Homo sapiens, 10 μM, 72 hours, read-out: inhibition of proliferation / cell growth) was 20% and the pIC50 (SW1573 [1]; Homo sapiens, 72 hours, Example 6) was less than 5.00.
`C=C(F)C(=O)N1CCN(c2nc(OC[C@@H]3CCCN3C)nc3c2CCN(c2cccc4cccc(Cl)c24)C3)C[C@@H]1CC#N` [adagrasib] was tested, and the “better viability compared to untreated spheroids” value (SW1573 spheroids; 0.6 μM) was 50%, the “spheroids inviable (red mean intensity, last time point)” value (H358 spheroids; 0.6 μM) was 80% and the “spheroids inviable (red mean intensity, last time point)” value (H23 spheroids; 0.6 μM) was 40%.
With `CC(C)C[C@H](NC(=O)[C@H](CCc1ccccc1)NC(=O)CN1CCOCC1)C(=O)N[C@@H](Cc1ccccc1)C(=O)N[C@@H](CC(C)C)C(=O)[C@@]1(C)CO1` [carfilzomib] the pIC50 [2] was 9.10, the “reduction of tumor growth (median)” value (H23 cells) was roughly 82% and the inhibition at 0.01 µM (SW1573 [3]; carfilzomib 10 nM, 72 hours, read-out: inhibition of growth) was 60%. The “tumor weight compared to control group” value (SW1573 NSCLC cells; end of study (day 56)) was “significant reduction in tumor weight”, the “reduction in tumor area” value (SW1573 NSCLC cells; sotorasib 10 mg/kg, adagrasib 10 mg/kg, carfilzomib 2 mg/kg, oral gavage twice a week, day 56) was roughly 56% and the “most effective dose, drug alone (obliterates SW1573 cells)” value (SW1573 cells) was 1.6 µM. The “effect on cell growth” value (SW1573 [1]; 20 nM) was “slows cell growth”.
`C[C@@H]1C[C@H](C)CN(S(=O)(=O)c2ccc3c(c2)C(=NO)c2cc(S(=O)(=O)N4C[C@H](C)C[C@H](C)C4)ccc2C3=NO)C1` [tegatrabetan] gave an inhibition at 0.01 µM (SW1573 [3]; tegatrabetan 10 nM, read-out: inhibition of cell growth) of 10%.
